Reference: publication PMC11042244 (RSC Medicinal Chemistry, 2024)

How the values were obtained:
[1] = target: T1, HNE (human neutrophil elastase) (Homo sapiens, UniProt P08246); experiment: HNE inhibition assay (fluorogenic substrate, enzymatic); assay type: biochemical; conditions: mean ± SD of three independent experiments, N.A. = no inhibitory activity at the highest concentration tested (50 μM)
T1 construct: purchased Calbiochem
T1 sequence (P08246 30-247 limits assumed): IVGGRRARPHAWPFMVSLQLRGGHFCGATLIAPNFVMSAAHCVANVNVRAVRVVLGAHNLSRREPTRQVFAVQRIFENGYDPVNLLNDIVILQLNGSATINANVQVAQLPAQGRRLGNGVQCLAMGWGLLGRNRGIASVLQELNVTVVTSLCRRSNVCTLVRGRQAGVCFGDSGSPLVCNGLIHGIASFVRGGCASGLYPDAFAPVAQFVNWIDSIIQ
Description: All compounds were dissolved in 100% DMSO at 5 mM stock concentrations and then subsequently diluted in 100% DMSO at various concentrations appropriate for use in the dose–response assays. […] The HNE inhibition assay was performed in black flat-bottom 96-well microtiter plates. Briefly, a buffer solution containing 200 mM Tris-HCl, pH 7.5, 0.01% bovine serum albumin, and 0.05% Tween-20 and 20 mU mL^−1 of HNE (Calbiochem) was added to wells containing different concentrations of each compound. The reaction was initiated by addition of 25 μM elastase substrate (N-methylsuccinyl-Ala-Ala-Pro-Val-7-amino-4-methylcoumarin, Calbiochem) in a final reaction volume of 100 μL per well. Kinetic measurements were obtained every 30 s for 10 min at 25 °C using a Fluoroskan Ascent FL fluorescence microplate reader (Thermo Electron, MA) with excitation and emission wavelengths of 355 and 460 nm, respectively. For all compounds tested, the concentration of inhibitor that caused 50% inhibition of the enzymatic reaction (IC50) was calculated by plotting % inhibition versus logarithm of inhibitor concentration (at least six points).[50]

[2] = system: ROS produced by PMA-stimulated murine bone marrow leukocytes; experiment: Antiradical activity assay: L-012-enhanced chemiluminescence of ROS production; assay type: cell-based, murine (BALB/c mice)
Description: (§1) All animal use was conducted in accordance with a protocol approved by the Institutional Animal Care and Use Committee (IACUC) at Montana State University (protocol approval number 2022-45-IA). Bone marrow leukocytes were flushed from tibias and femurs of BALB/c mice (2-month old; 25 g body weight) or CD-1 female mice (2.5-month old; 30 g body weight) with HBSS, filtered through a 70 μm nylon cell strainer (BD Biosciences, Franklin Lakes, NJ) to remove cell clumps and bone particles.
To evaluate antiradical activity, murine bone marrow leukocytes from BALB/c mice were resuspended at 10^6 cells per ml in HBSS containing Ca^2+ and Mg^2+ (HBSS^+) and supplemented with 40 μM L-012 (Wako Chemicals, Richmond, VA),[51] since L-012-enhanced chemiluminescence represents a sensitive and reliable method for detecting ROS.[52] The cells (100 μl) were then aliquoted into wells of 96-well flat-bottom white microtiter plates containing test compounds diluted in 100 μl of HBSS^+ (final DMSO concentration of 1%). The cells were activated by adding 200 nM PMA (Sigma Chemical Co., St. Louis, MO), and luminescence was monitored for 60 min (2 min intervals) at 37 °C using a Fluoroskan Ascent FL microtiter plate reader (Thermo Electron, Waltham, MA). The compound concentration that inhibited ROS production by 50% of the PMA-stimulated response was determined by graphing the percentage inhibition of the 60 min integrated luminescence versus the logarithm of concentration of test compound. Each curve was determined using five to seven compound concentrations. Curve fitting and calculation of median effective concentration values (IC50) were performed by nonlinear regression analysis of the dose–response curves generated using Prism 10 (GraphPad Software, Inc., San Diego, CA, USA).

[3] = system: murine bone marrow leukocytes; experiment: Cytotoxicity assay (CellTiter-Glo luminescent cell viability); assay type: cell-based, murine (CD-1 mice); conditions: for IC50: Mus musculus, Leukocyte, read-out: Cyto-toxicity IC50; for Cyto-toxicity IC50: 90 min incubation, mean ± SD of three experiments, N.A. = no cytotoxicity at the highest concentration tested (25 μM)
Description: as §1
The cytotoxicity of compounds for murine bone marrow leukocytes was analyzed using a CellTiter-Glo Luminescent Cell Viability Assay kit (Promega), according to the manufacturer's protocol. Briefly, bone marrow leukocytes from CD-1 mice were incubated at a density of 10^4 cells per well with different concentrations of compounds (the final concentration of DMSO was 1%) for 90 min at 37 °C and 5% CO2. Following treatment, the substrate was added to the cells, and the samples were analyzed with a FlexStation 3 microplate reader (Molecular Devices, San Jose, CA), USA.

[4] = inhibition of ROS production, 200 nM PMA, 60 min integrated luminescence, mean ± SD of three experiments, N.A. = no inhibitory activity at the highest concentration tested (50 μM)

Row | SMILES | HNE inhibition IC50 [1] | IC50 ([2]; Mus musculus, Leukocyte, 1 h) [nM] | IC50 [3] [nM] | IC50 [1] [nM] | Antiradical activity IC50 [2, 4] | Cyto-toxicity IC50 [3] | IC50 [2, 4] [nM]
1 | O=C(NC1CC1)n1[se]c2ccccc2c1=O [compound 8, N-Cyclopropyl-3-oxobenzo[d][1,2]selenazole-2(3H)-carboxamide] | completely inactive | 900 ± 300 | 5900 ± 1600 |  |  |  | 
2 | O=C(C1CCCCC1)n1[se]c2ccccc2c1=O [4l, 2-(Cyclohexanecarbonyl)benzo[d][1,2]selenazol-3(2H)-one] |  | 1100 ± 100 | 12400 ± 3400 | 24100 ± 4800 |  |  | 
3 | Cc1cccc(NC(=O)c2ccc(-n3[se]c4ccccc4c3=O)cc2)c1 [3d, 4-(3-Oxobenzo[d][1,2]selenazol-2(3H)-yl)-N-(m-tolyl)benzamide] |  |  |  |  | inactivity | no cytotoxicity | 
4 | CC(C)(C)C(=O)n1[se]c2ccccc2c1=O [4e, 2-Pivaloylbenzo[d][1,2]selenazol-3(2H)-one] |  | 2600 ± 400 | 13600 ± 3100 | 1800 ± 100 |  |  | 
5 | CCC(=O)n1[se]c2ccccc2c1=O [4b, 2-Propionylbenzo[d][1,2]selenazol-3(2H)-one] |  | 180 ± 50 | 8500 ± 1800 | 2600 ± 200 |  |  | 
6 | CCCCC(=O)n1[se]c2ccccc2c1=O [4f, 2-pentanoylbenzo[d][1,2]selenazol-3(2H)-one] |  | < 1000 | 4200 ± 900 | 900 ± 200 |  |  | 700 ± 200
7 | CCCC(=O)n1[se]c2ccccc2c1=O [4c, 2-Butyrylbenzo[d][1,2]selenazol-3(2H)-one] |  | 330 ± 80 | 4900 ± 600 | 2400 ± 400 |  |  | 
8 | CCCCCC(=O)n1[se]c2ccccc2c1=O [4g, 2-Hexanoylbenzo[d][1,2]selenazol-3(2H)-one] |  |  |  | 3000 ± 400 | inactivity | no cytotoxicity | 
9 | CC(=O)n1[se]c2ccccc2c1=O [4a, 2-Acetylbenzo[d][1,2]selenazol-3(2H)-one] |  | 420 ± 60 | 10800 ± 2400 | 7700 ± 2300 |  |  | 
10 | O=C(NC1CC1)c1ccc(-n2[se]c3ccccc3c2=O)cc1 [3c, N-Cyclopropyl-4-(3-oxobenzo[d][1,2]selenazol-2(3H)-yl)benzamide] |  | 9700 ± 1400 | 8000 ± 1900 |  |  |  | 
11 | CCOC(=O)n1[se]c2ccccc2c1=O [4h, Ethyl 3-oxobenzo[d][1,2]selenazole-2(3H)-carboxylate] | completely inactive | 2500 ± 400 | 15200 ± 3200 |  |  |  | 
12 | CC(C)(C)C(=O)Oc1ccc(S(=O)(=O)Nc2ccccc2C(=O)NCC(=O)O)cc1 [Sivelestat, reference compound] |  |  |  |  |  | no cytotoxicity | 
13 | O=C(c1ccsc1)n1[se]c2ccccc2c1=O [4p, 2-(Thiophene-3-carbonyl)benzo[d][1,2]selenazol-3(2H)-one] |  | 14300 ± 2700 |  |  |  | no cytotoxicity | 
14 | COc1ccc(C(=O)n2[se]c3ccccc3c2=O)cc1 [4o, 2-(4-Methoxybenzoyl)benzo[d][1,2]selenazol-3(2H)-one] |  |  |  | 8700 ± 1200 |  |  | 
15 | O=c1c2ccccc2[se]n1-c1ccccc1 [Ebselen (3a), 2-phenyl-1,2-benzoselenazol-3(2H)-one, reference compound] | completely inactive |  | 9500 ± 2500 |  |  |  | 
16 | CCOC(=O)c1ccc(-n2[se]c3ccccc3c2=O)cc1 [3b] |  | 1800 ± 200 |  |  |  | no cytotoxicity | 
17 | CCOC(=O)CC(=O)n1[se]c2ccccc2c1=O [4i, Ethyl 3-oxo-3-(3-oxobenzo[d][1,2]selenazol-2(3H)-yl)propanoate] |  | 1000 ± 300 | 8100 ± 1700 |  |  |  | 
18 | O=C(c1ccccc1)n1[se]c2ccccc2c1=O [4m, 2-Benzoylbenzo[d][1,2]selenazol-3(2H)-one] |  |  |  | 2300 ± 400 |  |  | 
19 | O=C(C1CC1)n1[se]c2ccccc2c1=O [4j, 2-(Cyclopropanecarbonyl)benzo[d][1,2]selenazol-3(2H)-one] |  |  | 10400 ± 2400 | 1400 ± 100 |  |  | 
20 | O=C(C1CCCC1)n1[se]c2ccccc2c1=O [4k, 2-(Cyclopentanecarbonyl)benzo[d][1,2]selenazol-3(2H)-one] |  | 1400 ± 200 | 11800 ± 2800 | 2800 ± 200 |  |  | 
21 | Cc1cccc(C(=O)n2[se]c3ccccc3c2=O)c1 [4n, 2-(3-Methylbenzoyl)benzo[d][1,2]selenazol-3(2H)-one] |  | 7000 ± 1300 |  | 10900 ± 2100 |  | no cytotoxicity | 
22 | CC(C)C(=O)n1[se]c2ccccc2c1=O [4d, 2-Isobutyrylbenzo[d][1,2]selenazol-3(2H)-one] |  | 600 ± 200 | 9600 ± 2200 | 1200 ± 100 |  |  | 
23 | CC(C)(C)C(=O)Oc1ccc(S(=O)(=O)n2[se]c3ccccc3c2=O)cc1 [compound 6, 4-[(3-Oxobenzo[d][1,2]selenazol-2(3H)-yl)sulfonyl]phenyl pivalate] |  | 6400 ± 400 |  | 2700 ± 500 |  | no cytotoxicity | 
